From patent US20260183408A1, “POLYPEPTIDE AND USE THEREOF” (SHENZHEN CHENYANG BIOLOGICAL TECHNOLOGY CO., LTD, priority 2022, published 2026)

Legend:
Assay type in all cases: in vivo, mouse
SPS mice = experiment: Corticosterone, cortisol, DA and 5-HT levels in hippocampus and cortex
CRS mice [1] = experiment: Open field test (OFT, total distance); conditions: single intraperitoneal 3 nmol/g, 1 hour after treatment (FIG. 12)
Experimental: (§1) The C57BL/6J mice were horizontally fixed for 6 h (from 10 to 16 o'clock) in a first acrylic restraint which is cylindrical and flat-bottomed (25×90 mm) every day for 2 weeks. The filter had several slots which could adapt to the size of each mouse to firmly restrain the mouse and inhibit body movements of the limb and trunk without causing pain. Immediately after being restrained, the mice were sent back to their cages. Unrestrained mice (control) stayed in their cages when no CRS procedure was performed. Neither the control mice nor the CRS mice could have access to food and water during the CRS exposure.
(§2) The C57BL/6J mice were subjected to various stress including restraint (for 4 h), cage tilting (for 45 times, with 12 h each time), light-dark cycle reversal (once), flash (for 12 h), and dirty cage (for 2 times, with 14 h each time). The protocol lasted 6 weeks. Control mice were not subjected to corresponding stress.
(§3) The mice were treated with TAT or TAT-D2R-KL (single intraperitoneal administration at 3 nmol/g in both cases). […]
OFT (for testing the total distance): The mice were acclimated to the experimental environment for 1 h and placed in a chamber of 45 cm×45 cm×30 cm. A video was recorded for 5 min to observe the motional activity of the mice. The total distance covered by the mice was measured, analyzed and expressed in millimeters.

CRS mice [2] = experiment: Forced swimming test (FST); conditions: single intraperitoneal 3 nmol/g, 1 hour after treatment, compared with TAT-treated mice (FIG. 12)
Experimental: as §1, §2, §3
FST: The mice were placed in a cylinder (having a height of 70 cm and a diameter of 30 cm) made of organic glass and filled with water (with water temperature at 23±1° C.), wherein the water level was more than 30 cm from the bottom. The mice were recorded in video for 5 min, then the video was analyzed, and the immobility time was recorded. […]

CRS mice [3] = experiment: Tail suspension test (TST); conditions: single intraperitoneal 3 nmol/g, 1 hour after treatment, compared with TAT-treated mice (FIG. 12)
Experimental: as §1, §2, §3
TST: The mice were suspended with a tape to a position 40 cm above the floor within a rectangular compartment (length 55 cm× width 20 cm× depth 11.5 cm). A video was recorded for a total of 5 minutes, and the immobility time was recorded. […]

CRS mice [4] = experiment: Sucrose preference test (SPT); conditions: single intraperitoneal 3 nmol/g, compared with TAT-treated mice (FIG. 12)
Experimental: as §1, §2, §3
SPT (Sucrose preference test): A two-bottle choice paradigm was adopted. […] Finally, the volume of consumed water or sucrose solution was recorded and calculation was carried out with the following equation (I): […]

CRS mice [5] = experiment: Open field test (OFT, time spent in the central area); conditions: single intraperitoneal 3 nmol/g, 1 hour later (FIG. 13)
Experimental: as §1
In order to evaluate the anti-anxiety-like effect of the polypeptide of the present invention, a CRS mouse model was established using the method in Example 6. The mice were treated with TAT or TAT-D2R-KL (single intraperitoneal administration at 3 nmol/g in both cases), and 1 hour later, an open field test (OFT) for testing the time spent in the central area and an elevated plus maze (EPM) test were performed. […]
OFT (for testing the time spent in the central area): The bottom of the open field was divided into 25 squares of equal area, with the 9 squares in the middle defined as the central area. One hour after the polypeptide treatment, the mice were placed in the central area to be recorded for 5 min, and the time spent in the central area by the mice was recorded.

CRS mice [6] = experiment: Elevated plus maze (EPM) test; conditions: single intraperitoneal 3 nmol/g, 1 hour later (FIG. 14)
Experimental: as §1
In order to evaluate the anti-anxiety-like effect of the polypeptide of the present invention, a CRS mouse model was established using the method in Example 6. […]
EPM: The device consisted of two open arms (25 cm×8 cm) and two closed arms (25 cm×8 cm) with the intersection as the central area (8 cm×8 cm), elevated 40 cm above the ground. One hour after the polypeptide treatment, the mice were placed in the central area facing an open arm, and their free movements were recorded for 5 min. […] The time spent in an open arm, the time spent in a closed arm, and the total moving distance of the mice were recorded.

## TAT-D2R-KL: C-terminus of the KL (K226-L240) region of D2R fused to the transduction domain of HIV-1 Tat protein (SEQ ID NO: 5)
SPS mice; hippocampus and cortex of SPS mice (FIG. 9)
  level of cortisol: did not significantly change
SPS mice; hippocampus and cortex of SPS mice (FIG. 10)
  level of DA: did not significantly change
SPS mice; hippocampus of SPS mice (FIG. 8)
  elevated corticosterone level: significantly reduced
SPS mice; hippocampus of SPS mice (FIG. 11)
  upregulated 5-HT: did not reduce
CRS mice [1]
  overall movement ability (total distance): had no effect
CRS mice [2]
  immobility time (FST): significantly reduced
CRS mice [3]
  immobility time (TST): significantly reduced
CRS mice [4]
  sucrose preference: significantly enhanced
CRS mice [5]
  time spent in the central area: significantly increased
CRS mice [6]
  time spent in an open arm: significantly increased
